Data published in paper PMC3141655 (BMC Biochemistry, 2011).
Read-outs that look alike come from different tables or passages of the source.

How the values were obtained:
[1] = target: T1, StOASS (O-acetylserine sulfhydrylase) (Salmonella typhimurium, UniProt P0A1E3)
Procedure: (§1) Isothermal titration calorimetry (ITC) experiments were performed using a Nano-ITC (TA-Instruments). OASS was dialyzed at 25°C in 20 mM Tris buffer (pH 8.0) and 50 mM NaCl. Buffer solutions were degassed at room temperature prior to use. […] The heat of dilution for each injection was determined using buffer in the cell. Data obtained from the titration of ligands with OASS were analyzed using either a two-sites binding model (eqn 2)(2) [drawing 2]
(§2) Qi^tot is total heat after the i^th injection, V0 is the volume of calorimetric cell, K1 and K2 are the observed equilibrium constants for each site, and ΔH1 and ΔH2 are the corresponding enthalpy changes. Estimates of Kobs and ΔH were obtained by fitting the experimental data to the model and the best-fit parameters were selected based on the lowest Chi-squared values.

[2] = target: T2, HiOASS (O-acetylserine sulfhydrylase) (Haemophilus influenzae, UniProt P45040); settings: for TdS / ΔG / ΔH: 20 mM Tris pH 8.0, 50 mM NaCl
Procedure: as §1, §2

[3] = target: T1, StOASS (O-acetylserine sulfhydrylase); assay: PLP fluorescence titration of ligands with StOASS; type: binding; parameters: His tag (N); made in house; host or cells: E. coli BL21(DE3), pET28a(+)
Procedure: Titrations of ligands with StOASS were examined by monitoring changes in the active site pyridoxal 5'phosphate (PLP) fluorescence of OASS using a Varian spectrofluorometer. The excitation and emission wavelengths for monitoring PLP signal change upon ligand binding were 412 nm and 507 nm respectively. All experiments were done at 23.0 ± 1°C. Slit widths were set to 5 nm for all experiments and PMT voltage was adjusted to get maximum signal for a given protein concentration. Initial readings of both the sample, Fsamp,0 and buffer, Fbuf,0 were taken, with F0 = Fsamp,0-Fbuf,0 defined as the initial fluorescence of the sample. The sample cuvette was then titrated with aliquots of ligands and mixed, equilibrated for 2-5 minutes before measurement. Data points from five such measurements were averaged to obtain Fave,i. The relative fluorescence quenching upon ligand binding is defined as Qobs,i = (F0-Fobs,i)/F0. All measurements were corrected for dilution, and inner filter effects.
Binding of ligands to OASS was analyzed to obtain the equilibrium binding constant, Kobs = [PL]/[P]*[L], using a single or two independent site binding models (eqn 1)(1) [drawing 1]
Where n, number of binding sites, Qobs, observed fluorescence quenching and Qmax, the maximum fluorescence quenching at saturation.

[4] = target: T2, HiOASS (O-acetylserine sulfhydrylase); assay: PLP fluorescence titration of ligands with HiOASS; type: binding; parameters: His tag (N); made in house; host or cells: E. coli BL21(DE3), pET28a(+); settings: 20 mM Tris pH 8.0
[5] = 10°C, 20 mM Tris pH 8.0, 50 mM NaCl
[6] = 15°C, 20 mM Tris pH 8.0, 50 mM NaCl
[7] = 20°C, 20 mM Tris pH 8.0, 50 mM NaCl
[8] = 25°C, 20 mM Tris pH 8.0, 50 mM NaCl
[9] = 30°C, 20 mM Tris pH 8.0, 50 mM NaCl
[10] = 35°C, 20 mM Tris pH 8.0, 50 mM NaCl
[11] = temperature not stated in the sentence (values match 30°C of Table 1)
[12] = [NaCl] 0.02 M, 20 mM Tris pH 8.0
[13] = [NaCl] 0.1 M, 20 mM Tris pH 8.0
[14] = [NaCl] 0.2 M, 20 mM Tris pH 8.0
[15] = [NaCl] 0.5 M, 20 mM Tris pH 8.0

T1 sequence (P0A1E3 whole entry): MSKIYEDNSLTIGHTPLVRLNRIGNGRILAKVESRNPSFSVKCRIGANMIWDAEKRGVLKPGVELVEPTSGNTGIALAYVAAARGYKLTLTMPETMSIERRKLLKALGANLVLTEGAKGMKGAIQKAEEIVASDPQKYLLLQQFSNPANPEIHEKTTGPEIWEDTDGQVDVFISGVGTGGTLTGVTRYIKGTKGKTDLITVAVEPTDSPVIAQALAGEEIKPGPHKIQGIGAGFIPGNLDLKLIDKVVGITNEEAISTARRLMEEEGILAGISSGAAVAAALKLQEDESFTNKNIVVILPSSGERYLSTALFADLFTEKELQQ
T2 sequence (P45040 whole entry): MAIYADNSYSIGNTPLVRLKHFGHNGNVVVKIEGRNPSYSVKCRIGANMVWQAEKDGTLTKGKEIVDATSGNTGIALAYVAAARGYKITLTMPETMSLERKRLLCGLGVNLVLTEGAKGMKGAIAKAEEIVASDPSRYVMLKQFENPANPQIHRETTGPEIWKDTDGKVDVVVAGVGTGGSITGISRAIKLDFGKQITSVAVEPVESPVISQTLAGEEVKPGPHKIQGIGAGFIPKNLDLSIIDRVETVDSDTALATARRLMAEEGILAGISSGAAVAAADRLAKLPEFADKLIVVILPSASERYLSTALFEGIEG

**Q.** CSCC[C@H](N)C(=O)O [Methionine, L-methionine] was tested. Which ΔH ([1]; 25 mM HEPES, pH 8.0, 50 mM NaCl, 25°C) did it give?
**A.** Its ΔH is -0.4 ± 0.1 kJ/M.

**Q.** What about the TdS [1, 5] of the same compound?
**A.** Its TdS is 1.74 kcal/mol.

**Q.** And the ΔH [1, 5]?
**A.** Its ΔH is -0.311 ± 0.024 kcal/mol.

**Q.** What about the ΔG ([1]; 10°C, 20 mM Tris pH 8.0, 50 mM NaCl, two independent sites model) of the same compound?
**A.** Its ΔG is -2.06 ± 0.19 kcal/mol.

**Q.** What about the TdS [1, 6] of the same compound?
**A.** The TdS was 1.72 kcal/mol.

**Q.** And the ΔG [1, 6]?
**A.** Its ΔG is -2.06 ± 0.096 kcal/mol.

**Q.** And the ΔH [1, 6]?
**A.** Its ΔH is -0.335 ± 0.024 kcal/mol.

**Q.** What about the TΔS ([1]; 20°C) of the same compound?
**A.** The TΔS was 8.2 kJ/M.

**Q.** And the ΔH ([1]; 20°C)?
**A.** The ΔH was -1.5 ± 0.1 kJ/M.

**Q.** What about the TdS [1, 7] of the same compound?
**A.** The TdS was 1.96 kcal/mol.

**Q.** And the ΔG [1, 7]?
**A.** Its ΔG is -2.32 ± 0.12 kcal/mol.

**Q.** What about the ΔH [1, 7] of the same compound?
**A.** Its ΔH is -0.359 ± 0.024 kcal/mol.

**Q.** And the TdS [1, 8]?
**A.** The TdS was 2.06 kcal/mol.

**Q.** What about the ΔG [1, 8] of the same compound?
**A.** The ΔG was -2.27 ± 0.12 kcal/mol.

**Q.** What about the ΔH [1, 8] of the same compound?
**A.** Its ΔH is -0.22 ± 0.024 kcal/mol.

**Q.** What about the TdS [1, 9] of the same compound?
**A.** The TdS was 2.25 kcal/mol.

**Q.** What about the ΔG [1, 9] of the same compound?
**A.** The ΔG was -2.49 ± 0.19 kcal/mol.

**Q.** What about the ΔH [1, 9] of the same compound?
**A.** The ΔH was -0.239 ± 0.024 kcal/mol.

**Q.** And the TdS [1, 10]?
**A.** Its TdS is 2.41 kcal/mol.

**Q.** What about the ΔG [1, 10] of the same compound?
**A.** Its ΔG is -2.7 ± 0.311 kcal/mol.

**Q.** What about the ΔH [1, 10] of the same compound?
**A.** Its ΔH is -0.287 ± 0.024 kcal/mol.

**Q.** And the “net enthalpic contribution to total binding free energy” value ([1]; temperature not given)?
**A.** The value was ~ 10%.

**Q.** And the ΔG [1, 11]?
**A.** The ΔG was -10.4 kJ/M.

**Q.** And the ΔH [1, 11]?
**A.** Its ΔH is -1.0 ± 0.2 kJ/M.

**Q.** What about the “enthalpic contribution to binding free energy” value [2] of the same compound?
**A.** The value was 8%.

**Q.** What about the TdS ([2]; 10°C) of the same compound?
**A.** The TdS was 1.7 kcal/mol.

**Q.** What about the ΔG ([2]; 10°C) of the same compound?
**A.** Its ΔG is -1.72 ± 0.22 kcal/mol.

**Q.** What about the ΔH ([2]; 10°C) of the same compound?
**A.** The ΔH was -0.048 ± 0.024 kcal/mol.

**Q.** What about the ΔG ([2]; 15°C) of the same compound?
**A.** Its ΔG is -1.72 ± 0.22 kcal/mol.

**Q.** And the ΔH ([2]; 15°C)?
**A.** Its ΔH is -0.048 ± 0.024 kcal/mol.

**Q.** What about the TdS ([2]; 20°C) of the same compound?
**A.** The TdS was 1.91 kcal/mol.

**Q.** And the ΔG ([2]; 20°C)?
**A.** The ΔG was -1.96 ± 0.239 kcal/mol.

**Q.** And the ΔH ([2]; 20°C)?
**A.** The ΔH was -0.048 ± 0.024 kcal/mol.

**Q.** And the TdS ([2]; 25°C)?
**A.** Its TdS is 1.65 kcal/mol.

**Q.** What about the ΔG ([2]; 25°C) of the same compound?
**A.** The ΔG was -1.82 ± 0.263 kcal/mol.

**Q.** What about the ΔH ([2]; 25°C) of the same compound?
**A.** Its ΔH is -0.19 ± 0.024 kcal/mol.

**Q.** And the TdS ([2]; 30°C)?
**A.** The TdS was 1.84 kcal/mol.

**Q.** What about the ΔG ([2]; 30°C) of the same compound?
**A.** Its ΔG is -2.01 ± 0.239 kcal/mol.

**Q.** What about the ΔH ([2]; 30°C) of the same compound?
**A.** The ΔH was -0.17 ± 0.024 kcal/mol.

**Q.** And the “N (number of binding sites)” value [3, 12]?
**A.** The value was 2.

**Q.** And the “Qmax (maximum fluorescence quenching at saturation)” value [3, 12]?
**A.** Its value is 3.8.

**Q.** What about the ΔG [3, 12] of the same compound?
**A.** Its ΔG is -3.18 ± 0.024 kcal/mol.

**Q.** What about the Kobs ([3]; [NaCl] 0.02 M, 20 mM Tris pH 8.0, similar for each of two sites) of the same compound?
**A.** Its Kobs is 2.9 ± 0.1 × 10^2 M^-1.

**Q.** And the Kobs ([3]; [NaCl] 0.02 M, 20 mM Tris pH 8.0, similar for each of two sites, listed as methionine)?
**A.** The Kobs was 290 M⁻¹.

**Q.** And the Kobs [3, 13]?
**A.** Its Kobs is 6.5 ± 0.1 × 10^1 M^-1.

**Q.** What about the “N (number of binding sites)” value [3, 13] of the same compound?
**A.** The value was 2.

**Q.** What about the Qmax [3, 13] of the same compound?
**A.** Its Qmax is 1.0.

**Q.** And the ΔG [3, 13]?
**A.** Its ΔG is -2.39 ± 0.024 kcal/mol.

**Q.** What about the Kobs [3, 14] of the same compound?
**A.** The Kobs was 5.5 ± 0.1 × 10^1 M^-1.

**Q.** And the “N (number of binding sites)” value [3, 14]?
**A.** Its value is 2.

**Q.** And the Qmax [3, 14]?
**A.** The Qmax was 1.4.

**Q.** What about the ΔG [3, 14] of the same compound?
**A.** Its ΔG is -2.25 ± 0.024 kcal/mol.

**Q.** What about the Kobs [3, 15] of the same compound?
**A.** Its Kobs is 3.5 ± 0.1 × 10^1 M^-1.

**Q.** What about the “N (number of binding sites)” value [3, 15] of the same compound?
**A.** Its value is 2.

**Q.** What about the Qmax [3, 15] of the same compound?
**A.** Its Qmax is 0.5.

**Q.** What about the ΔG [3, 15] of the same compound?
**A.** The ΔG was -2.08 ± 0.024 kcal/mol.

**Q.** And the Kd ([3]; from K1,obs and K2,obs of the PLP fluorescence titration, read-out: Kd)?
**A.** The Kd was ~3.4 mM.

**Q.** What about the Kobs ([4]; [NaCl] 0.02 M) of the same compound?
**A.** The Kobs was 1.5 ± 0.1 × 10^2 M^-1.

**Q.** And the Qmax ([4]; [NaCl] 0.02 M)?
**A.** The Qmax was 3.0.

**Q.** And the ΔG ([4]; [NaCl] 0.02 M)?
**A.** The ΔG was -2.82 ± 0.048 kcal/mol.

**Q.** What about the Kobs ([4]; [NaCl] 0.1 M) of the same compound?
**A.** The Kobs was 5.8 ± 0.1 × 10^1 M^-1.

**Q.** And the “N (number of binding sites)” value ([4]; [NaCl] 0.1 M)?
**A.** Its value is 2.

**Q.** What about the Qmax ([4]; [NaCl] 0.1 M) of the same compound?
**A.** The Qmax was 0.5.

**Q.** What about the ΔG ([4]; [NaCl] 0.1 M) of the same compound?
**A.** Its ΔG is -2.27 ± 0.12 kcal/mol.

**Q.** What about the Kobs ([4]; [NaCl] 0.2 M) of the same compound?
**A.** Its Kobs is 3.4 ± 0.1 × 10^1 M^-1.

**Q.** And the “N (number of binding sites)” value ([4]; [NaCl] 0.2 M)?
**A.** The value was 2.

**Q.** What about the Qmax ([4]; [NaCl] 0.2 M) of the same compound?
**A.** Its Qmax is 0.2.

**Q.** What about the ΔG ([4]; [NaCl] 0.2 M) of the same compound?
**A.** The ΔG was -1.94 ± 0.12 kcal/mol.

**Q.** What about the Kobs ([4]; [NaCl] 0.5 M) of the same compound?
**A.** Its Kobs is 2.3 ± 0.1 × 10^1 M^-1.

**Q.** What about the “N (number of binding sites)” value ([4]; [NaCl] 0.5 M) of the same compound?
**A.** The value was 2.

**Q.** What about the Qmax ([4]; [NaCl] 0.5 M) of the same compound?
**A.** The Qmax was 0.2.

**Q.** What about the ΔG ([4]; [NaCl] 0.5 M) of the same compound?
**A.** The ΔG was -1.74 ± 0.14 kcal/mol.
